Assay results: patent US20190388421A1, “NOVEL COMPOUNDS AND PHARMACEUTICAL COMPOSITIONS THEREOF FOR THE TREATMENT OF FIBROSIS” (Galapagos NV, priority 2016, published 2019)

Assays:
S1PR2 = target: T1, S1PR2 (Homo sapiens, UniProt O95136); test: GTP-γS binding assay ([35S]GTPγS, S1P at EC80, S1PR2 membranes); format: biochemical; conditions: membranes from stable cell line over expressing S1PR2, read-out: S1PR2 EC
T1 construct: expressed in transfected cells
Procedure: The following assay can be used for determination of S1PR2 activation. The [^35S] GTPγS assay measures the level of G protein activation following agonist occupation of a GPCR, by determining the binding of the non-hydrolysable analog [^35S] GTPγS to Gα subunits.
The assay is performed in a 96 well plate where the following reagents are added. First 50 μL compound is added into the assay plate, followed by addition of 20 μL S1P at EC80 concentration (concentration which gives 80% of the activity of S1PR2). Then, 30 μL of a mixture consisting of membranes-GTPγS-SpA beads is added [mixture consists of 2.5 μg/well membranes derived from stable cell line over expressing S1PR2 (membranes are pre-incubated with 1 μM GDP for 15 min at 4° C.), 0.1 nM [35S]GTPγS (Perkin Elmer, NEG030) and 0.5 mg/well PVT-WGA SpA beads (Perkin Elmer, RPNQ0001)]. All components are diluted in assay buffer containing 20 mM Tris pH 7.5; 10 mM MgCl2; 100 mM NaCl; 0.1% BSA FAF; 50 ug/ml saponin. After an incubation for 4 h at room temperature, plates are centrifuged at 2000 rpm during 20 min. Plates are read on a Topcount reader (Perkin Elmer) immediately after centrifugation (readout time, 1 min/well).

[1] = target: T2, human GPCR sphingosine 1-phosphate receptor 2 (S1PR2) (Homo sapiens, UniProt O95136); test: S1P2 antagonist assay (Ca2+ flux, S1P at EC80); format: cell-based; conditions: CHO-S1PR2 cells, highest concentration 20 μM
T2 construct: host or cells: CHO
Procedure: Triggering of S1PR2 by administration of Sphingosine-1-phosphate leads to a transient increase in intracellular Ca^2+. The Ca^2+ flux assays are measuring the release of Ca^2+ intracellularly by use of a Ca^2+ sensitive fluorescent dye. The assay is firstly run in agonist mode (incubation of compounds alone) to ensure that the Ca^2+ released measured is not caused by the test compound having an agonistic effect. Then the assay is continued in antagonist mode (Sphingosine-1-Phosphate added to incubated medium containing the test compounds).
CHO cells stably overexpressing human GPCR sphingosine 1-phosphate receptor 2 (CHO—S1PR2 Perkin Elmer; ES-594-A) are seeded from a frozen stock in 384 wells sterile microplates (50 μL; 7,500 cells/well) and are incubated overnight at 37° C. and 5% CO2. The next day cells are washed twice with starvation medium (F-12 Ham's medium containing 0.1% BSA (Fatty acid free: FAF)) and left in […] starvation medium for 1 h at 37° C., 5% CO2. After this starvation cells are incubated with […] buffer containing the Ca^2+-sensitive fluorescent dye (0.5 mg Fluo8+125 mg Allura Red in 100 ml of 1% DMSO, in HBSS+20 mM Hepes+5 mM probenecid). The cells are incubated for an additional 1 hour after which 10 μL compounds, diluted in HBSS buffer with 20 mM Hepes and 0.1% BSA (FAF), are added to the cells and intracellular Ca^2+ changes are immediately measured by reading fluorescence during 3 min (FDSS/μCELL reader). The ratio of the maximal fluorescence over the background fluorescence before compound injection is used to determine compound response.
After readout of the agonist activity, the plates are incubated for 15 min at 37° C. and 5% CO2. Then, cells are stimulated with 10 μL Sphingosine-1-Phosphate (S1P) (Avanti Polar lipids-860492P) at its EC80 concentration. Intracellular Ca^2+ changes are immediately measured by reading fluorescence during 3 min (FDSS/μCELL reader). The ratio of the maximal fluorescence over the background fluorescence before compound injection is used to determine compound response.
For EC50 determination, a 10 point dilution series of compounds starting from 23.3 μM and 20 μM highest final concentration for agonist and antagonist respectively, ⅓ dilution was performed.
The obtained ratio's for agonist and antagonist readout were normalized versus vehicle and EC100 of S1P as controls for agonist mode and versus vehicle and EC80 of S1P for antagonist mode. From these normalized data EC50 of the compounds are derived.

T2 sequence (O95136 whole entry): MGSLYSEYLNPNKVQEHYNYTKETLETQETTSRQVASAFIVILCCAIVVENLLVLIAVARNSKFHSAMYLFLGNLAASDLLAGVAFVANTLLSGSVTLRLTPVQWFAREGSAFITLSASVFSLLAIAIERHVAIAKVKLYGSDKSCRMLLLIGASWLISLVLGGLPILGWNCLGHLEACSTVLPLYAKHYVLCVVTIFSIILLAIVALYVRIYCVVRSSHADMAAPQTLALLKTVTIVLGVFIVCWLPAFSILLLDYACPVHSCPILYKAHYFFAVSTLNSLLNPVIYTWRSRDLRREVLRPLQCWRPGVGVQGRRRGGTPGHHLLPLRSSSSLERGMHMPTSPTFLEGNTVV
T1 sequence (O95136 whole entry): as above

SMILES	EC50 (S1PR2)	EC50 [1]
Cc1cc(CNC(=O)Nc2cnc(OCC3CC3)c(C(F)(F)F)c2)nnc1-c1cn(C)nc1C(F)(F)F [Compound 11, 1-[6-cyclopropyl-methoxy-5-(trifluoromethyl)-3-pyridyl]-3-[[5-methyl-6-[1-methyl-3-(trifluoromethyl)pyrazol-4-yl]pyridazin-3-yl]methyl]urea]	716 nM	49.6 nM
Cc1cc(CNC(=O)Nc2cnc(OCC(F)F)c(Cl)c2)nnc1N1CC(C)OC(C)C1 (centres unmarked) [Compound 84, 1-[5-chloro-6-(2,2-difluoroethoxy)-3-pyridyl]-3-[[6-(2,6-dimethyl-morpholin-4-yl)-5-methyl-pyridazin-3-yl]methyl]urea]	–	6510 nM
CCOc1ncc(NC(=O)NCc2cc(C)c(N3CC(C)OC(C)C3)nn2)cc1Cl (centres unmarked) [Compound 86, 1-(5-chloro-6-ethoxy-3-pyridyl)-3-[[6-(2,6-dimethyl-morpholin-4-yl)-5-methyl-pyridazin-3-yl]methyl]urea]	–	1360 nM
Cc1cc(CNC(=O)Nc2cnc(OCC3CC3)c(Cl)c2)nnc1N1CC(C)OC(C)C1 (centres unmarked) [Compound 88, 1-[5-chloro-6-(cyclopropyl-methoxy)-3-pyridyl]-3-[[6-(2,6-dimethyl-morpholin-4-yl)-5-methyl-pyridazin-3-yl]methyl]urea]	–	4510 nM
CCOc1cc(N[14C](=O)NCc2cc(C)c(-c3cn(C)nc3C(F)(F)F)nn2)cc(C(F)(F)F)n1 [Compound 98, 1-(2-Ethoxy-6-trifluoromethyl-pyridin-4-yl)-3-[5-methyl-6-(1-methyl-3-trifluoromethyl-1H-pyrazol-4-yl)-pyridazin-3-ylmethyl]-C14 urea]	16300 nM	–

Further lines, results first:

EC50 (S1PR2)	EC50 [1]	SMILES
50.2 nM	16.9 nM	Cc1cc(CNC(=O)Nc2cc(Cl)cc(Cl)c2)nnc1-c1cn(C)nc1C(F)(F)F [Compound 6, 1-(3,5-dichlorophenyl)-3-[[5-methyl-6-[1-methyl-3-(trifluoromethyl)pyrazol-4-yl]pyridazin-3-yl]methyl]urea]
590 nM	11.7 nM	Cc1cc(CNC(=O)Nc2cnc(OCC(F)(F)F)c(C(F)(F)F)c2)nnc1-c1cn(C)nc1C(F)(F)F [Compound 12, 1-[[5-methyl-6-[1-methyl-3-(trifluoromethyl)pyrazol-4-yl]pyridazin-3-yl]methyl]-3-[6-(2,2,2-trifluoroethoxy)-5-(trifluoromethyl)-3-pyridyl]urea]
1120 nM	40.3 nM	Cc1cc(CNC(=O)Nc2cnc(OCC3CC3)c(Cl)c2)nnc1-c1cn(C)nc1C(F)(F)F [Compound 13, 1-[5-chloro-6-(cyclopropyl-methoxy)-3-pyridyl]-3-[[5-methyl-6-[1-methyl-3-(trifluoromethyl)pyrazol-4-yl]pyridazin-3-yl]methyl]urea]
225 nM	24.2 nM	Cc1cc(CNC(=O)Nc2cc(Cl)nc(OCC(F)(F)F)c2)nnc1-c1cn(C)nc1C(F)(F)F [Compound 14, 1-[2-chloro-6-(2,2,2-trifluoroethoxy)-4-pyridyl]-3-[[5-methyl-6-[1-methyl-3-(trifluoromethyl)pyrazol-4-yl]pyridazin-3-yl]methyl]urea]
88.7 nM	17.1 nM	Cc1cc(CNC(=O)Nc2cc(OCC(F)F)nc(C(F)(F)F)c2)nnc1-c1cn(C)nc1C(F)(F)F [Compound 19, 1-[2-(2,2-difluoroethoxy)-6-(trifluoromethyl)-4-pyridyl]-3-[[5-methyl-6-[1-methyl-3-(trifluoromethyl)pyrazol-4-yl]pyridazin-3-yl]methyl]urea]
–	11.5 nM	CCOc1nc(C(F)(F)F)cc(NC(=O)NCc2cc(C)c(-c3cn(C)nc3C(F)(F)F)nn2)c1Br [Compound 49, 1-[3-bromo-2-ethoxy-6-(trifluoromethyl)-4-pyridyl]-3-[[5-methyl-6-[1-methyl-3-(trifluoromethyl)pyrazol-4-yl]pyridazin-3-yl]methyl]urea]
